Consider 14 compounds from patent US9416128B2, “Fused heterocyclic compounds as ion channel modulators” (Gilead Sciences, Inc., priority 2013, dated 2016).

In assay [1] the target is hNaV1.1 (SCN1A) (Homo sapiens, UniProt P35498). Description: Use-dependent inhibition of the CNS NaV1.1 sodium channel. It counts as cell-based. As to conditions: % inhibition; for inhibition at 1 µM / inhibition at 10 µM: 25 Hz; for inhibition at 1 µM: read-out: Nav1.1 UDB 25 Hz 1 uM; for inhibition at 10 µM: read-out: Nav1.1 UDB 25 Hz 10 uM. The method, then:
HEK-293 cells stably expressing wild-type (WT) hNaV1.1 (SCN1A, NCBI# AB09354) were obtained from Millipore (Cat. # CYL3009) were used to record INa. Cells are maintained with standard tissue culture procedures and stable channel expression is maintained with 400 ug/mL G418 in the culture medium. Unless otherwise noted, all reagents are purchased from Sigma-Aldrich (St Louis, Mo., U.S.A.).
Assays measuring Use-Dependent Block (UDB) of NaV1.2 are performed on an automated electrophysiology platform, QPatch 16X or QPatch HT (Sophion Bioscience, Copenhagen, Denmark), using the whole cell patch clamp technique to measure currents through the cell membrane. Series resistance compensation is set to 100% and series resistance and whole-cell compensation are performed automatically. Currents stored in the Sophion Bioscience Oracle database (Sophion Bioscience, Copenhagen, Denmark). Analysis is performed using QPatch Assay software and data are compiled in Excel 2010 (Microsoft, Seattle, Wash., U.S.A.).
The internal (pipette) solution consists of (in mM) 105 CsF, 10 NaF, 20 CsCl, 2 EGTA, 10 HEPES, 10 Dextrose with a pH of 7.35 and osmolarity of 300 mOsmol/kg. The external (bath) solution contains in (mM): 145 NaCl, 4 KCl, 1.8 CaCl2, 1 MgCl2, 10 dextrose, 10 HEPES, with a pH of 7.35 and osmolarity of 310 mOsmol/kg. Experiments are carried out at 23-25° C.
Compound stocks are routinely made by the Gilead Sample Bank in vials to 10 mM in dimethyl sulfoxide (DMSO). In some cases, when compounds are not soluble in DMSO, they are made in 100% ethanol. Stocks are sonicated as necessary. […]
Cells are allowed to stabilize for 10 min after establishment of the whole-cell configuration before current is measured. The test compound is applied 2 times at 60 second intervals. After the second compound addition, a 200 second wait period was imposed to allow for equilibration.
Leak currents are subtracted by using an online P/4 procedure and all currents are low-pass Bessel filtered at 5 kHz and digitized at […].
Use-dependent block of NaV1.2 peak current is measured during pulse number 20 of a voltage pulse train (0 mV, 20 ms, 20 pulses, 25 Hz) from a holding potential of −120 mV. Currents are normalized to the peak current recorded in response to the first pulse in each frequency train. The voltage protocol for UDB was performed in the absence and presence of compound and percentage inhibition was calculated with respect to the compound free condition. Results are presented as mean percentage inhibition and data analysis is performed using QPatch Assay Software 4.0, and Excel 2002 (Microsoft, Seattle, Wash., U.S.A.).

In assay [2] the target is wild-type human cardiac sodium channel, hNaV 1.5 (Peak INa) (Homo sapiens, UniProt Q14524). Description: Peak INa screening assay (tonic block and use-dependent block). It is filed as cell-based. The procedure:
The assay uses an HEK293 (human embryonic kidney) cell line heterologously expressing the wild-type human cardiac sodium channel, hNaV 1.5, purchased from Millipore (Billerica, Mass.). No beta subunits were coexpressed with the Na channel alpha subunit. Cells are maintained with standard tissue culture procedures and stable channel expression is maintained with 400 μg/mL Geneticin in the culture medium. […] Currents are digitized at 25 kHz and low-pass filtered at 5 kHz and stored in the Sophion Bioscience Oracle database (Sophion Bioscience, Copenhagen, Denmark). Analysis is performed using QPatch Assay software and data are compiled in Excel 2010 (Microsoft, Seattle, Wash., U.S.A.). Compound stocks are routinely made by the Gilead Sample Bank in vials to 10 mM in dimethyl sulfoxide (DMSO). In some cases, when compounds are not soluble in DMSO, they are made in 100% ethanol. Stocks are sonicated as necessary. The extracellular solution for screening Late INa is composed of: 140 mM NaCl, 4 mM KCl, 1.8 mM CaCl2, 1 mM MgCl2, 10 mM HEPES and 10 mM Dextrose with pH adjusted to 7.35 using NaOH. The intracellular solution contains: 105 mM CsF, 20 mM CsCl, 10 NaF, 2 mM EGTA, 10 mM HEPES and 10 mM Dextrose with pH adjusted to 7.35 with CsOH. Compounds are diluted in extracellular solution using a MicroLab Nimbus (Hamilton Robotics, Reno, Nev.) to between 0.3 and 3 μM in glass vials and transferred to glass well plates before robotic addition to the cells. […] It is contemplated that the compounds of Formula I avoid significant block of peak INa. […] The intracellular solution used for the Peak INa assay is the same as outlined for the Late INa assay (see above). After establishing the whole cell recording configuration, channels were stimulated to open with low frequency (0.1 Hz) for so that the recording can be monitored and the extent to which the recording has stabilized can be assessed. The test compound is then applied at 1 or 3 μM was added 2 times at 60 second intervals. After the second compound addition, a 200 second wait period was imposed to allow for equilibration. Voltage protocols for TB and UDB are were performed in the absence and presence of compound and TB and UDB are calculated with respect to the compound free condition. Both TB and UDB were analyzed by incorporating rundown correction for the peak INa.

The mark [3] stands for this setting: % inhibition, use-dependent block of peak INa at 3 uM, 3 Hz, pulse 50, read-out: Nav1.5 Peak UDB 3 Hz 3 uM.
The mark [4] stands for this setting: read-out: Nav1.5 Peak TB 3 uM, % inhibition, tonic block of peak INa at 3 uM, 0.1 Hz, holding -100 mV.

The structures appear in SMILES notation. Read-outs that look alike come from different tables or passages of the source.

Sequence of wild-type human cardiac sodium channel, hNaV 1.5 (Peak INa) (Q14524 whole entry): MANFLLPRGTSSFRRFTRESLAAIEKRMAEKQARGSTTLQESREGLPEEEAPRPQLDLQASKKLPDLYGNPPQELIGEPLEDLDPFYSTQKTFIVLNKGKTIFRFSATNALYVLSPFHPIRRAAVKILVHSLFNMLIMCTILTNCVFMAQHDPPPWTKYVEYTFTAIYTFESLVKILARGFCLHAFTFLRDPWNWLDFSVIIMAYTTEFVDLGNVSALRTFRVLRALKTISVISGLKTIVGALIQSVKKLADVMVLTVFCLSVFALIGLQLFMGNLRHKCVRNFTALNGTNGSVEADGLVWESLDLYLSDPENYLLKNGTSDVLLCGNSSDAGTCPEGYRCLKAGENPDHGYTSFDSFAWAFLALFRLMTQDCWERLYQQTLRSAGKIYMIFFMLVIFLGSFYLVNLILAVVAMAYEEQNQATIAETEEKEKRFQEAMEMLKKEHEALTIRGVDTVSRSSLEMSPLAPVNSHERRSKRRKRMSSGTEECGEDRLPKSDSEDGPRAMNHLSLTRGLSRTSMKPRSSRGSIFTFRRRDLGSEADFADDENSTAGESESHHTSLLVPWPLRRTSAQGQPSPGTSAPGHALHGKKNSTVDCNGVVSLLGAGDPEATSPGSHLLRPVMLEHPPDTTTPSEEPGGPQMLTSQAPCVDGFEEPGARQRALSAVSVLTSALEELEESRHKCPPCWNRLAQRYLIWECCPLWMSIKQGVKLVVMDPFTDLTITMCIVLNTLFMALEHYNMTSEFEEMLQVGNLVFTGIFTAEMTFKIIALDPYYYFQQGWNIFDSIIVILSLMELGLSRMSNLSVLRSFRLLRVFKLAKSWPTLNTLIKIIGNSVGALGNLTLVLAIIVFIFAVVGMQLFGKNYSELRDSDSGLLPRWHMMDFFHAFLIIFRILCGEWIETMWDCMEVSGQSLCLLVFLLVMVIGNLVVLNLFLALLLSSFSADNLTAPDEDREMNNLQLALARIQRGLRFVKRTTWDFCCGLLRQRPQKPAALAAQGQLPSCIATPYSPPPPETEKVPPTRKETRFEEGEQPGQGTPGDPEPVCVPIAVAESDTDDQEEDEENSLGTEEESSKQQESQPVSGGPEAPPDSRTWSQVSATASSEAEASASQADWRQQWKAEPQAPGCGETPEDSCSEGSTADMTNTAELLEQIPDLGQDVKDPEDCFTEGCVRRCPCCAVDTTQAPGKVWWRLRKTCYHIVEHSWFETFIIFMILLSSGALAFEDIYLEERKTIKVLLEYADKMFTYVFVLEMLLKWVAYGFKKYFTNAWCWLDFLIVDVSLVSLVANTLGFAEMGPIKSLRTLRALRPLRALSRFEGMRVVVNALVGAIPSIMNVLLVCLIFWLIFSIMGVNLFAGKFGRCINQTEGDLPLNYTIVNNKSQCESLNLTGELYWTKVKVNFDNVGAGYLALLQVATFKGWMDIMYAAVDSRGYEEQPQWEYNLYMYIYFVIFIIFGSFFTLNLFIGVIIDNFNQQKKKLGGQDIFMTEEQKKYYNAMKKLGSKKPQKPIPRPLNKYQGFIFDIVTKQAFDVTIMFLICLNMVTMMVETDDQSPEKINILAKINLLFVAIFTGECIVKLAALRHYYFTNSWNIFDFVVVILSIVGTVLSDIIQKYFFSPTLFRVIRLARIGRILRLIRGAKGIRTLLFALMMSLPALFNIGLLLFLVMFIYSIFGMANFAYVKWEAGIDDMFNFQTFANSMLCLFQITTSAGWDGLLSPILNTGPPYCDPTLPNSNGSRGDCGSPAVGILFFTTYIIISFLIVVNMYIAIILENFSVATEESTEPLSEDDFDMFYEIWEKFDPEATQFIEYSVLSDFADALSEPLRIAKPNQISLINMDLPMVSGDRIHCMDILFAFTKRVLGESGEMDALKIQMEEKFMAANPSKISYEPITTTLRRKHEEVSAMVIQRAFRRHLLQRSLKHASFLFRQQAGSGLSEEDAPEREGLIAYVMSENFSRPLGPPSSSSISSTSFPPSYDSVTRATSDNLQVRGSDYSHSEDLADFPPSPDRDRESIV

For the compound `CCCOc1cc(OC(F)(F)F)ccc1-c1ccc2c(c1)CN(Cc1ncccn1)C(=O)O2` [Example 28, 6-(2-propoxy-4-(trifluoromethoxy)phenyl)-3-(pyrimidin-2-ylmethyl)-3,4-dihydro-2H-benzo[e][1,3]oxazin-2-one], in assay [1] (use-dependent block at 1 uM), the inhibition at 1 µM was 25.2%. Also, the inhibition at 10 µM in assay [1] (use-dependent block at 10 uM) was 67.4%. Further, the inhibition at 3 µM in assay [2] (setting [3]) worked out at 6.9%; in assay [2] (setting [4]), 12.9%.
In the case of `Cc1csc(CN2Cc3cc(-c4ccc(OC(F)(F)F)cc4Cl)ccc3OC2=O)n1` [Example 57, 6-(2-chloro-4-(trifluoromethoxy)phenyl)-3-((4-methylthiazol-2-yl)methyl)-3,4-dihydro-2H-benzo[e][1,3]oxazin-2-one], the inhibition at 1 µM in assay [1] (use-dependent block at 1 uM) is less than 5%. In addition, in assay [1] (use-dependent block at 10 uM), the inhibition at 10 µM turned out to be 48.8%. Further, the inhibition at 3 µM in assay [2] (setting [3]) was less than 5%.
Consider `COc1cc(OC(F)(F)F)ccc1-c1ccc2c(c1)CN(Cc1nc(C)cs1)C(=O)O2` [Example 58, 6-(2-methoxy-4-(trifluoromethoxy)phenyl)-3-((4-methylthiazol-2-yl)methyl)-3,4-dihydro-2H-benzo[e][1,3]oxazin-2-one], for which the inhibition at 1 µM in assay [1] (use-dependent block at 1 uM) was determined as 7.8%. The inhibition at 10 µM in assay [1] (use-dependent block at 10 uM) is 68.7%. The values for the inhibition at 3 µM in assay [2] (setting [3]) and in assay [2] (setting [4]) were less than 5% and 7.9%, respectively.
As for `O=C1Oc2ccc(-c3ccc(OC(F)(F)F)cc3F)cc2CN1Cc1ccccn1` [Example 21, 6-(2-fluoro-4-(trifluoromethoxy)phenyl)-3-(pyridin-2-ylmethyl)-3,4-dihydro-2H-benzo[e][1,3]oxazin-2-one], in assay [1] (use-dependent block at 1 uM), the inhibition at 1 µM was less than 5%. The inhibition at 10 µM in assay [1] (use-dependent block at 10 uM) was found to be 50.8%. In addition, the inhibition at 3 µM was less than 5% in assay [2] (setting [3]) and 23% in assay [2] (setting [4]).
Regarding `Cc1ccnc(CN2Cc3cc(-c4ccc(C(F)(F)F)cc4)ccc3OC2=O)n1` [Example 30, 3-((4-methylpyrimidin-2-yl)methyl)-6-(4-(trifluoromethyl)phenyl)-3,4-dihydro-2H-benzo[e][1,3]oxazin-2-one], in assay [1] (use-dependent block at 1 uM), the inhibition at 1 µM came to 49.7%. In addition, in assay [1] (use-dependent block at 10 uM), the inhibition at 10 µM was found to be 87.5%. In addition, the inhibition at 3 µM amounted to 13.2% in assay [2] (setting [3]) and 36.5% in assay [2] (setting [4]).
`COc1cc(OC(F)(F)F)ccc1-c1ccc2c(c1)CN(Cc1ncccn1)C(=O)O2` [Example 9, 6-(2-methoxy-4-(trifluoromethoxy)phenyl)-3-(pyrimidin-2-ylmethyl)-3,4-dihydro-2H-benzo[e][1,3]oxazin-2-one]: the inhibition at 1 µM in assay [1] (use-dependent block at 1 uM) is less than 5%. Further, the inhibition at 10 µM in assay [1] (use-dependent block at 10 uM) came to 34.4%. Also, the “Nav1.5 Peak TB 3 uM” value in assay [2] (% inhibition, tonic block of peak INa at 3 uM, 0.1 Hz, holding -100 mV) is given as 18.9%. Further, the “Nav1.5 Peak UDB 3 Hz 3 uM” value in assay [2] (% inhibition, use-dependent block of peak INa at 3 uM, 3 Hz, pulse 50) is reported as less than 5%.
As for `Cc1ccnc(CN2Cc3cc(-c4ccc(OC(F)(F)F)cc4C)ccc3OC2=O)n1` [Example 33, 6-(2-methyl-4-(trifluoromethoxy)phenyl)-3-((4-methylpyrimidin-2-yl)methyl)-3,4-dihydro-2H-benzo[e][1,3]oxazin-2-one], in assay [1] (use-dependent block at 1 uM), the inhibition at 1 µM was 5.5%. Further, the inhibition at 10 µM in assay [1] (use-dependent block at 10 uM) turned out to be 61.4%. Moreover, the figures for the inhibition at 3 µM in assay [2] (setting [3]) and in assay [2] (setting [4]) were less than 5% and 27.8%, respectively.
Consider `COc1cc(OC(F)(F)F)ccc1-c1ccc2c(c1)CN(Cc1ncccn1)C(=O)O2` [Example 1, 6-(2-methoxy-4-(trifluoromethoxy)phenyl)-3-(pyrimidin-2-ylmethyl)-3,4-dihydro-2H-benzo[e][1,3]oxazin-2-one], for which the “Nav1.1 UDB 25 Hz 1 uM” value in assay [1] (use-dependent block at 1 uM) is less than 5%. For the same compound, the “Nav1.1 UDB 25 Hz 10 uM” value in assay [1] (use-dependent block at 10 uM) is listed as 34.4%. In addition, the inhibition at 3 µM in assay [2] (setting [3]) is 9.6%; in assay [2] (setting [4]), 26.7%.
As to `COc1cc(OC(F)(F)F)ccc1-c1ccc2c(c1)CN(Cc1nccc(C)n1)C(=O)O2` [Example 31, 6-(2-methoxy-4-(trifluoromethoxy)phenyl)-3-((4-methylpyrimidin-2-yl)methyl)-3,4-dihydro-2H-benzo[e][1,3]oxazin-2-one], in assay [1] (use-dependent block at 1 uM), the inhibition at 1 µM worked out at 6%. Besides, the inhibition at 10 µM in assay [1] (use-dependent block at 10 uM) stood at 53.3%. For the same compound, the inhibition at 3 µM was less than 5% in assay [2] (setting [3]) and 12.2% in assay [2] (setting [4]).
Turning to `Cc1cc(-c2ccc3c(c2)CN(Cc2ncccn2)C(=O)O3)ccc1OC(F)(F)F` [Example 5, 6-(3-methyl-4-(trifluoromethoxy)phenyl)-3-(pyrimidin-2-ylmethyl)-3,4-dihydro-2H-benzo[e][1,3]oxazin-2-one], the inhibition at 1 µM in assay [1] (use-dependent block at 1 uM) is less than 5%. Besides, in assay [1] (use-dependent block at 10 uM), the inhibition at 10 µM amounted to 15.3%. Also, the inhibition at 3 µM in assay [2] (setting [3]) is less than 5%; in assay [2] (setting [4]), 10.1%.
Turning to `Cc1csc(CN2Cc3cc(-c4ccc(Cl)c(F)c4)ccc3OC2=O)n1` [Example 59, 6-(4-chloro-3-fluorophenyl)-3-((4-methylthiazol-2-yl)methyl)-3,4-dihydro-2H-benzo[e][1,3]oxazin-2-one], the inhibition at 1 µM in assay [1] (use-dependent block at 1 uM) came to 20.7%. The inhibition at 10 µM in assay [1] (use-dependent block at 10 uM) was 39.9%. The inhibition at 3 µM is less than 5% in assay [2] (setting [3]) and 13% in assay [2] (setting [4]).
Regarding `Cc1ccnc(CN2Cc3cc(-c4ccc(OC(F)(F)F)cc4F)ccc3OC2=O)n1` [Example 32, 6-(2-fluoro-4-(trifluoromethoxy)phenyl)-3-((4-methylpyrimidin-2-yl)methyl)-3,4-dihydro-2H-benzo[e][1,3]oxazin-2-one], the inhibition at 1 µM in assay [1] (use-dependent block at 1 uM) was found to be 10.8%. In addition, the inhibition at 10 µM in assay [1] (use-dependent block at 10 uM) was 61.8%. In addition, the inhibition at 3 µM was less than 5% in assay [2] (setting [3]) and 33.1% in assay [2] (setting [4]).
With `CC1c2cc(-c3ccc(Cl)c(F)c3)ccc2OC(=O)N1Cc1ncccn1` (stereo not shown) [Example 11, 6-(4-chloro-3-fluorophenyl)-4-methyl-3-(pyrimidin-2-ylmethyl)-3,4-dihydro-2H-benzo[e][1,3]oxazin-2-one], the inhibition at 1 µM in assay [1] (use-dependent block at 1 uM) was 21%. Moreover, the inhibition at 10 µM in assay [1] (use-dependent block at 10 uM) turned out to be 81.1%. For the same compound, the inhibition at 3 µM in assay [2] (setting [3]) came out at 5.6%; in assay [2] (setting [4]), 19.4%.
For `O=C1Oc2ccc(-c3ccc(C(F)(F)F)cc3)cc2CN1Cc1ccncc1` [Example 2, 3-(pyridin-4-ylmethyl)-6-(4-(trifluoromethyl)phenyl)-3,4-dihydro-2H-benzo[e][1,3]oxazin-2-one], in that order: 9.7%, 22.6%, 16.2% and 18.5%.
